Data taken from ChEMBL document CHEMBL1201862, “PubChem BioAssay data set” (2004).
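Five compound concentrations were applied to cells in 96-well plates for 48 hours; endpoints were derived by simple linear interpolation of the resulting dose-response curve. GI50: concentration for 50% inhibition of growth.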 The source made the active and inactive calls. Cut-off read from the data, not from the text of the source: active = GI50 up to about 1.1 µM and inactive = higher.

How the values were obtained:
Test in all cases: inhibition of tumour cell growth, NCI panel, 48 h
SR = system: SR
HCC 2998 = system: HCC 2998
EKVX = system: EKVX
HL-60 = system: HL-60
MDA-N = system: MDA-N
CAKI-1 = system: CAKI-1
NCI-H460 = system: NCI-H460
COLO 205 = system: COLO 205
OVCAR-4 = system: OVCAR-4
UACC-257 = system: UACC-257
SK-MEL-5 = system: SK-MEL-5
K562 = system: K562
CCRF-CEM = system: CCRF-CEM
HCT-15 = system: HCT-15
OVCAR-3 = system: OVCAR-3
OVCAR-5 = system: OVCAR-5
SK-MEL-28 = system: SK-MEL-28
HOP-92 = system: HOP-92
DU-145 = system: DU-145
MDA-MB-435 = system: MDA-MB-435
RXF 393 = system: RXF 393
SNB-75 = system: SNB-75
SK-OV-3 = system: SK-OV-3
NCI-H522 = system: NCI-H522
M14 = system: M14
786-0 = system: 786-0
SF-539 = system: SF-539
LOX IMVI = system: LOX IMVI
SF-268 = system: SF-268
TK-10 = system: TK-10
PC-3 = system: PC-3
U-251 = system: U-251
A498 = system: A498
SN12C = system: SN12C
MDA-MB-231 = system: MDA-MB-231
IGROV-1 = system: IGROV-1
ACHN = system: ACHN
MCF7 = system: MCF7
NCI-H23 = system: NCI-H23
A549 = system: A549
HOP-62 = system: HOP-62
SF-295 = system: SF-295
T47D = system: T47D
BT-549 = system: BT-549
HCT-116 = system: HCT-116
KM12 = system: KM12
MOLT-4 = system: MOLT-4
UO-31 = system: UO-31
SK-MEL-2 = system: SK-MEL-2
SNB-19 = system: SNB-19
UACC-62 = system: UACC-62
Hs-578T = system: Hs-578T
SW-620 = system: SW-620
RPMI-8226 = system: RPMI-8226
NCI/ADR-RES = system: NCI/ADR-RES
Malme-3M = system: Malme-3M
HT-29 = system: HT-29
OVCAR-8 = system: OVCAR-8
NCI-H226 = system: NCI-H226

Cc1ccc(C)c2c1NC(=O)/C2=N\Nc1ccccc1[N+](=O)[O-]
GI50 (SR): 1.61 µM (inactive) | GI50 (HCC 2998): > 100 µM (inactive) | GI50 (EKVX): > 100 µM (inactive) | GI50 (HL-60): > 100 µM (inactive) | GI50 (MDA-N): > 100 µM (inactive) | GI50 (CAKI-1): > 100 µM (inactive) | GI50 (NCI-H460): > 100 µM (inactive) | GI50 (COLO 205): > 100 µM (inactive) | GI50 (OVCAR-4): 38 µM (inactive) | GI50 (UACC-257): > 100 µM (inactive) | GI50 (SK-MEL-5): > 100 µM (inactive) | GI50 (K562): 74.1 µM (inactive) | GI50 (CCRF-CEM): > 100 µM (inactive) | GI50 (HCT-15): > 100 µM | GI50 (OVCAR-3): > 100 µM (inactive) | GI50 (OVCAR-5): > 100 µM (inactive) | GI50 (SK-MEL-28): > 100 µM (inactive) | GI50 (HOP-92): 40.7 µM (inactive) | GI50 (DU-145): > 100 µM (inactive) | GI50 (MDA-MB-435): > 100 µM (inactive) | GI50 (RXF 393): > 100 µM (inactive) | GI50 (SNB-75): > 100 µM (inactive) | GI50 (SK-OV-3): > 100 µM (inactive) | GI50 (NCI-H522): > 100 µM (inactive) | GI50 (M14): > 100 µM (inactive) | GI50 (786-0): 61.5 µM (inactive) | GI50 (SF-539): 98.2 µM (inactive) | GI50 (LOX IMVI): > 100 µM (inactive) | GI50 (SF-268): > 100 µM (inactive) | GI50 (TK-10): > 100 µM (inactive) | GI50 (PC-3): > 100 µM (inactive) | GI50 (U-251): 85.5 µM (inactive) | GI50 (A498): > 100 µM (inactive) | GI50 (SN12C): > 100 µM (inactive) | GI50 (MDA-MB-231): > 100 µM (inactive) | GI50 (IGROV-1): 10.7 µM (inactive) | GI50 (ACHN): > 100 µM (inactive) | GI50 (MCF7): > 100 µM (inactive) | GI50 (NCI-H23): > 100 µM (inactive) | GI50 (A549): > 100 µM (inactive) | GI50 (HOP-62): 55.8 µM (inactive) | GI50 (SF-295): > 100 µM (inactive) | GI50 (T47D): > 100 µM (inactive) | GI50 (BT-549): > 100 µM (inactive) | GI50 (HCT-116): > 100 µM (inactive) | GI50 (KM12): > 100 µM (inactive) | GI50 (MOLT-4): > 100 µM (inactive) | GI50 (UO-31): > 100 µM (inactive) | GI50 (SK-MEL-2): 78 µM (inactive) | GI50 (SNB-19): > 100 µM (inactive) | GI50 (UACC-62): > 100 µM (inactive) | GI50 (Hs-578T): 35.7 µM (inactive) | GI50 (SW-620): > 100 µM (inactive) | GI50 (RPMI-8226): > 100 µM (inactive)

CCOC(=O)c1ccc(Nc2nc3ccccc3nc2C(=O)OCC)cc1
GI50 (NCI/ADR-RES): > 100 µM (inactive) | GI50 (SR): > 100 µM (inactive) | GI50 (HCC 2998): > 100 µM (inactive) | GI50 (Malme-3M): > 100 µM (inactive) | GI50 (EKVX): > 100 µM (inactive) | GI50 (HL-60): > 100 µM (inactive) | GI50 (MDA-N): > 100 µM (inactive) | GI50 (CAKI-1): > 100 µM (inactive) | GI50 (NCI-H460): > 100 µM (inactive) | GI50 (COLO 205): > 100 µM (inactive) | GI50 (OVCAR-4): > 100 µM (inactive) | GI50 (SK-MEL-5): > 100 µM (inactive) | GI50 (K562): > 100 µM (inactive) | GI50 (CCRF-CEM): > 100 µM (inactive) | GI50 (HT-29): > 100 µM (inactive) | GI50 (HCT-15): > 100 µM | GI50 (OVCAR-3): > 100 µM (inactive) | GI50 (OVCAR-5): > 100 µM (inactive) | GI50 (SK-MEL-28): > 100 µM (inactive) | GI50 (HOP-92): 43.1 µM (inactive) | GI50 (DU-145): > 100 µM (inactive) | GI50 (MDA-MB-435): > 100 µM (inactive) | GI50 (SNB-75): 24.7 µM (inactive) | GI50 (SK-OV-3): > 100 µM (inactive) | GI50 (NCI-H522): > 100 µM (inactive) | GI50 (M14): > 100 µM (inactive) | GI50 (786-0): 57.7 µM (inactive) | GI50 (SF-539): > 100 µM (inactive) | GI50 (SF-268): > 100 µM (inactive) | GI50 (TK-10): > 100 µM (inactive) | GI50 (U-251): > 100 µM (inactive) | GI50 (SN12C): > 100 µM (inactive) | GI50 (MDA-MB-231): > 100 µM (inactive) | GI50 (IGROV-1): > 100 µM (inactive) | GI50 (ACHN): > 100 µM (inactive) | GI50 (MCF7): > 100 µM (inactive) | GI50 (OVCAR-8): > 100 µM (inactive) | GI50 (NCI-H23): > 100 µM (inactive) | GI50 (A549): > 100 µM (inactive) | GI50 (HOP-62): > 100 µM (inactive) | GI50 (T47D): > 100 µM (inactive) | GI50 (BT-549): > 100 µM (inactive) | GI50 (HCT-116): > 100 µM (inactive) | GI50 (KM12): 75.5 µM (inactive) | GI50 (MOLT-4): > 100 µM (inactive) | GI50 (UO-31): > 100 µM (inactive) | GI50 (SK-MEL-2): > 100 µM (inactive) | GI50 (SNB-19): > 100 µM (inactive) | GI50 (UACC-62): > 100 µM (inactive) | GI50 (Hs-578T): 59.6 µM (inactive) | GI50 (RPMI-8226): 85.9 µM (inactive)

N#CCCN(CCN(CCC#N)C(=O)Nc1ccccc1)C(=O)Nc1ccccc1
GI50 (NCI/ADR-RES): 72.6 µM (inactive) | GI50 (SR): > 100 µM (inactive) | GI50 (HCC 2998): > 100 µM (inactive) | GI50 (Malme-3M): > 100 µM (inactive) | GI50 (EKVX): 90.8 µM (inactive) | GI50 (HL-60): > 100 µM (inactive) | GI50 (MDA-N): > 100 µM (inactive) | GI50 (NCI-H460): 68.5 µM (inactive) | GI50 (COLO 205): > 100 µM (inactive) | GI50 (UACC-257): > 100 µM (inactive) | GI50 (SK-MEL-5): > 100 µM (inactive) | GI50 (K562): > 100 µM (inactive) | GI50 (CCRF-CEM): > 100 µM (inactive) | GI50 (HT-29): > 100 µM (inactive) | GI50 (HCT-15): > 100 µM | GI50 (OVCAR-5): > 100 µM (inactive) | GI50 (SK-MEL-28): > 100 µM (inactive) | GI50 (HOP-92): 37.6 µM (inactive) | GI50 (DU-145): 76.9 µM (inactive) | GI50 (RXF 393): 24.4 µM (inactive) | GI50 (SNB-75): 19.5 µM (inactive) | GI50 (SK-OV-3): 28.6 µM (inactive) | GI50 (NCI-H522): 32.3 µM (inactive) | GI50 (M14): > 100 µM (inactive) | GI50 (786-0): 75.5 µM (inactive) | GI50 (LOX IMVI): > 100 µM (inactive) | GI50 (SF-268): 28.5 µM (inactive) | GI50 (TK-10): > 100 µM (inactive) | GI50 (PC-3): 69.3 µM (inactive) | GI50 (U-251): 39.6 µM (inactive) | GI50 (A498): > 100 µM (inactive) | GI50 (SN12C): > 100 µM (inactive) | GI50 (MDA-MB-231): > 100 µM (inactive) | GI50 (IGROV-1): 68.9 µM (inactive) | GI50 (ACHN): > 100 µM (inactive) | GI50 (MCF7): > 100 µM (inactive) | GI50 (OVCAR-8): 57.5 µM (inactive) | GI50 (NCI-H23): 61.4 µM (inactive) | GI50 (A549): 80.2 µM (inactive) | GI50 (HOP-62): 20.8 µM (inactive) | GI50 (NCI-H226): > 100 µM (inactive) | GI50 (SF-295): 31.8 µM (inactive) | GI50 (T47D): > 100 µM (inactive) | GI50 (BT-549): 31 µM (inactive) | GI50 (HCT-116): 49.3 µM (inactive) | GI50 (MOLT-4): > 100 µM (inactive) | GI50 (UO-31): 85.7 µM (inactive) | GI50 (SK-MEL-2): > 100 µM (inactive) | GI50 (SNB-19): 32.7 µM (inactive) | GI50 (UACC-62): > 100 µM (inactive) | GI50 (Hs-578T): 33.8 µM (inactive) | GI50 (SW-620): > 100 µM (inactive) | GI50 (RPMI-8226): > 100 µM (inactive)
